Reference: ChEMBL document CHEMBL5230086, “Contemporary approaches and future perspectives of antibacterial photodynamic therapy (aPDT) against methicillin-resistant Staphylococcus aureus (MRSA): A systematic review” (Eur J Med Chem, 2020)

Assays:
Staphylococcus aureus [1] = test: Photodynamic antibacterial activity against Methicillin-resistant Staphylococcus aureus infected C57 mouse excision wound model assessed as fold reduction in bacterial growth at 100 microg/ml,po for 15 mins followed by photo-irradiation with 360 J/cm^2 light for 30 mins; type: functional; conditions: dose 100 µg/ml, time 45 min, 0.75 h
Staphylococcus aureus [2] = test: Photodynamic antibacterial activity against Methicillin-resistant Staphylococcus aureus assessed as reduction in bacterial colony forming unit at 300 microg/ml followed by photo-irradiation with 664 nm for 400 sec; type: functional; conditions: dose 300 µg/ml, 0.1111 h
Staphylococcus aureus [3] = test: Photodynamic antibacterial activity against Methicillin-resistant Staphylococcus aureus assessed as reduction in bacterial colony forming unit at 50 microg/ml followed by photo-irradiation with 163.8 J/cm^2 for 10 to 30 mins; type: functional; conditions: dose 50 µg/ml; time 10-30 min
[4] = Photodynamic antibacterial activity against mix of Methicillin-resistant Staphylococcus aureus-Pseudomonas aeruginosa assessed as reduction in bacterial colony forming unit at 300 microg/ml followed by photo-irradiation with 664 nm for 400 sec; type: functional; conditions: dose 300 µg/ml, 0.1111 h
[5] = Photodynamic antibacterial activity against mix of Methicillin-resistant Staphylococcus aureus-Pseudomonas aeruginosa assessed as reduction in bacterial colony forming unit at 500 microg/ml followed by photo-irradiation with 664 nm for 400 sec; type: functional; conditions: dose 500 µg/ml, 0.1111 h
[6] = Photodynamic antibacterial activity against mix of Methicillin-resistant Staphylococcus aureus-Pseudomonas aeruginosa in endotracheal tube model assessed as reduction in growth unit at 500 microg/ml followed by photo-irradiation with 108 J/cm^2 light for 12 mins; type: functional; parameters: scale not given: the % may be the effect or the level left; conditions: dose 500 µg/ml, 0.2 h
Staphylococcus aureus [7] = test: Photodynamic antibacterial activity against Methicillin-resistant Staphylococcus aureus assessed as reduction in bacterial colony forming unit at 3 uM followed by photo-irradiation with 30 J/cm^2 for 30 mins; type: functional; conditions: 0.5 h
[8] = Photodynamic antibacterial activity against mix of Methicillin-resistant Staphylococcus aureus-Pseudomonas aeruginosa in maxillary sinus model assessed as reduction in bacterial growth at 0.03 % followed by photo-irradiation with 150 mW/cm^2 light by spectrophotometry; type: functional; parameters: scale not given: the % may be the effect or the level left
Staphylococcus aureus [9] = test: Photodynamic antibacterial activity against Methicillin-resistant Staphylococcus aureus infected C57 mouse superficial wound model assessed as fold reduction in bacterial growth at 100 microg/ml,po for 15 mins followed by photo-irradiation with 360 J/cm^2 light for 30 mins; type: functional; conditions: dose 100 µg/ml, time 45 min, 0.75 h
[10] = Photodynamic antibacterial activity against mix of Methicillin-resistant Staphylococcus aureus-Pseudomonas aeruginosa in maxillary sinus model assessed as reduction in bacterial colony forming unit at 0.03 % followed by photo-irradiation with 150 mW/cm^2 light by spectrophotometry; type: functional
Staphylococcus aureus [11] = test: Photodynamic antibacterial activity against Methicillin-resistant Staphylococcus aureus assessed as reduction in bacterial growth at 250 microg/ml followed by photo-irradiation with 100 J/cm^2 light for 100 sec; type: functional; parameters: scale not given: the % may be the effect or the level left; conditions: dose 250 µg/ml, 100 s
Staphylococcus aureus [12] = test: Photodynamic antibacterial activity against Methicillin-resistant Staphylococcus aureus assessed as reduction in bacterial colony forming unit at 500 microg/ml followed by photo-irradiation with 664 nm for 400 sec; type: functional; conditions: dose 500 µg/ml, 0.1111 h
[13] = Cytotoxicity against C57BL/6NCr mouse Neutrophil assessed as cell viability followed by photo-irradiation with 20 mW/cm^2 light by tryptan blue dye based hemacytometer; type: toxicity; conditions: mouse neutrophils, read-out: Activity
Staphylococcus aureus [14] = test: Photodynamic antibacterial activity against Methicillin-resistant Staphylococcus aureus in bovine bone assessed as reduction in bacterial colony forming unit at 1.5 g/L followed by photo-irradiation with 20.1 J/cm^2 light for 24 hrs by fluorescence spectroscopy; type: functional
Staphylococcus aureus [15] = test: Photodynamic antibacterial activity against Methicillin-resistant Staphylococcus aureus infected Balb/C mouse assessed as reduction in lymph node bacterial colony forming unit at 1.5 %,ID followed by photo-irradiation with 54 J/cm^2 light measured upto 72 hrs; type: functional
Neutrophil = test: Cytotoxicity against C57BL/6NCr mouse Neutrophil assessed as reduction in cell viability at 20 uM followed by photo-irradiation with 20 mW/cm^2 light by tryptan blue dye based hemacytometer; type: toxicity
Staphylococcus aureus [16] = test: Photodynamic antibacterial activity against Methicillin-resistant Staphylococcus aureus ATCC 43300 assessed as reduction in bacterial growth at 0.01 % followed by photo-irradiation with 450 nm at 5.4 J/cm^2 light for 10 min by microscopic analysis; type: functional; parameters: scale not given: the % may be the effect or the level left
Staphylococcus aureus [17] = test: Photodynamic antibacterial activity against Methicillin-resistant Staphylococcus aureus ATCC 43300 assessed as reduction in bacterial growth at 0.01 % followed by photo-irradiation with 412 nm at 5.4 J/cm^2 light for 10 min by microscopic analysis; type: functional; parameters: scale not given: the % may be the effect or the level left
Staphylococcus aureus [18] = test: Photodynamic antibacterial activity against Methicillin-resistant Staphylococcus aureus clinical isolate 2 assessed as reduction in bacterial growth at 0.01 % followed by photo-irradiation with 5.4 J/cm^2 light for 30 min by microscopic analysis; type: functional; parameters: scale not given: the % may be the effect or the level left; conditions: 0.5 h
Staphylococcus aureus [19] = test: Photodynamic antibacterial activity against Methicillin-resistant Staphylococcus aureus assessed as reduction in bacterial growth at 0.01 % followed by photo-irradiation with 5405 J/cm^2 light for 30 min by microscopic analysis; type: functional; parameters: scale not given: the % may be the effect or the level left; conditions: 0.5 h
Staphylococcus aureus [20] = test: Photodynamic antibacterial activity against Methicillin-resistant Staphylococcus aureus clinical isolate 1 assessed as reduction in bacterial growth at 0.01 % followed by photo-irradiation with 5.4 J/cm^2 light for 30 min by microscopic analysis; type: functional; parameters: scale not given: the % may be the effect or the level left; conditions: 0.5 h
Staphylococcus aureus [21] = test: Photodynamic antibacterial activity against Methicillin-resistant Staphylococcus aureus assessed as reduction in bacterial growth followed by photo-irradiation with 25 J/cm^2 light for 15 mins by crystal violet staining assay; type: functional; parameters: scale not given: the % may be the effect or the level left; conditions: 0.25 h
Staphylococcus aureus [22] = test: Photodynamic antibacterial activity against Methicillin-resistant Staphylococcus aureus assessed as reduction in bacterial colony forming unit at 8 uM followed by photo-irradiation with 30 J/cm^2 light; type: functional
Staphylococcus aureus [23] = test: Photodynamic antibacterial activity against Methicillin-resistant Staphylococcus aureus assessed as reduction in bacterial growth at 120 uM followed by photo-irradiation with blue light for 10 to 120 min; type: functional; parameters: scale not given: the % may be the effect or the level left; conditions: time 10-120 min
Staphylococcus aureus [24] = test: Photodynamic antibacterial activity against Methicillin-resistant Staphylococcus aureus assessed as reduction in bacterial growth at 30 uM followed by photo-irradiation with violet light for 10 to 120 min; type: functional; parameters: scale not given: the % may be the effect or the level left; conditions: time 10-120 min

With `CN(C)c1ccc2nc3ccc(N(C)C)cc3[s+]c2c1.[Cl-]` [METHYLENE BLUE ANHYDROUS] the “fold change (FC)” value (Staphylococcus aureus [1]) was 25, the Activity (Staphylococcus aureus [2]) was 6.7 log10CFU and the Activity (Staphylococcus aureus [3]) was 2.2 log10CFU. The Activity [4] was 6.7 log10CFU, the Activity [5] was 7.39 log10CFU and the Activity [6] was >99.9%. The Activity (Staphylococcus aureus [7]) was 7 log10CFU, the Activity [8] was >99.99% and the “fold change (FC)” value (Staphylococcus aureus [9]) was 14. For the same compound, the Activity [10] was 5 log10CFU, the Activity (Staphylococcus aureus [11]) was >99% and the Activity (Staphylococcus aureus [12]) was 7.39 log10CFU. The viability [13] was > 80%.

In the case of `COc1cc(/C=C/C(=O)CC(=O)/C=C/c2ccc(O)c(OC)c2)ccc1O` [CURCUMIN], the Activity (Staphylococcus aureus [14]) is reported as 3.6 log10CFU and the Activity (Staphylococcus aureus [15]) is reported as >5 log10CFU.

For `CC/N=c1/cc2sc3cc(NCC)c(C)cc3nc-2cc1C.Cl`, the Activity (Neutrophil) was < 70%.

With `Cc1cc2c(cc1C)N(C[C@H](O)C[C@H](O)CO)C1NC(=O)NC(=O)C1=N2` (stereo not given in full) the Activity (Staphylococcus aureus [16]) was 98%, the Activity (Staphylococcus aureus [17]) was 99% and the Activity (Staphylococcus aureus [18]) was 100%. It also gave an Activity (Staphylococcus aureus [19]) of 90% and an Activity (Staphylococcus aureus [20]) of 98%.

With `Cc1cc(O)c2c3c1-c1c(C)cc(O)c4c1C1c5c(c(O)cc(O)c5-c5c(O)cc(O)c(c5C31)C2=O)C4=O` (stereo not given) the Activity (Staphylococcus aureus [21]) was 92.2% and the Activity (Staphylococcus aureus [22]) was >6 log10CFU.

Work on `Cc1cc2nc3c(=O)[nH]c(=O)nc-3n(C[C@H](O)[C@H](O)[C@H](O)COP(=O)(O)O)c2cc1C` [RIBOFLAVIN 5'-PHOSPHATE] yielded an Activity (Staphylococcus aureus [23]) of 95.2% and an Activity (Staphylococcus aureus [24]) of 97%.
